Measured values taken from patent publication US10590145B2, “Tetrahydrothiopyranopyrimidine derivatives as anti-HIV agent” (SHANDONG UNIVERSITY, priority 2016, dated 2020).

Tests used:
[1] = test system: wide-type HIV-1 (strain IIIB); assay: Anti-HIV-1 activity in MT-4 cells (MTT method), wild-type; format: cell-based; conditions: for EC50: Human immunodeficiency virus 1, IIIB, MT4, read-out: EC50 (nM) wt
Procedure: (§1) Selected compounds were screened for inhibitory activity against HIV-1 using MTT method as describe previously by Christophe. Pannecouque et al. Nat. Protoc. 3 (2008) 427-434, and Rudi Pauwels et al. J. Virol. Methods 20 (1988) 309-321. Briefly, MT-4 cells infected with HIV-1 can only survive for 5 to 7 days without any treatment, but when HIV-1 inhibitors were added, they can protect MT-4 cell from cytopathic. Serial solution of compounds was added to MT-4 cells after infected with HIV-1, MTT method was used to detect the survival rate after culture for 5 to 7 days. EC50 value was defined as compound concentration required to achieve 50% protection of MT-4 cells against HIV-1-induced cytopathic effect. In vitro anti-HIV-1 assay was supported by Rega Institute for Medical Research.
(§2) • (1) MT-4 cells infected with HIV-1 viral strains (IIIB, L100I, K103N, Y181C, Y188L, E138K, F227L/V106A, Y181C/K103N) were provided by Rega Institute for Medical Research, Katholieke Universiteit Leuven, Belgium. • (2) MTT and formazan: sigma Chemical Co. • (3) Preparation of compounds: Stock solutions (10×final concentration) of test compounds is diluted with double distilled water for 5 folds and 5 concentrations of one compound are prepared. • (4) Reference drugs: Nevirapine (NVP), Efavirenz (EFV), Etravirine (ETV), Rilpivirine (RPV) and Azidothymidine (AZT). • (5) Method (MTT method): Serial five-fold dilutions of test compounds were added to cultured MT-4 cells infected with HIV-1, after 5 to 7 days, MTT was added and cultured for a few hours. Medium was removed and lysate was added followed by formazan, OD value was determined in 690 nm and 540 nm by microplate reader, and EC50 value was calculated. 2. Method
(§3) The MTT method was described briefly as follows: 96-well plastic microtiter trays were filled with 100 μL of complete medium. Subsequently, serial of tested compounds was added (25 μL) to two series of triplicate wells so as to allow simultaneous evaluation of their effects on HIV- and mock infected cells. 50 μL of 1×10^4 cells/mL MT-4 cells were added. After cultured for 5 days at 37° C. in humidified atmosphere in the presence of 5% CO2, MTT was added and cultured for another 2 h, then medium was removed and 100 μL isopropanol solution was added to lyse the cells. Formazan crystals were added and vibrated platform shaker for 10 min to solubilize the formazan crystals. Absorbances at 690 nm and 540 nm were read by using spectrophotometrically. EC50 was defined as the concentration achieving 50% protection from the cytopathic effect of the virus in infected cells.
(§4) Selected compounds prepared as described above were assayed in MT-4 cells infected with wide-type IIIB, L100I, K103N, Y181C, Y188L, E138K or double mutant RES056 (Y181C/K103N) and F227L/V106A HIV-1 strains. Nevirapine, Efavirenz, Etravirine, Rilpivirine and Azidothymidine were selected as reference drugs. The results were listed below as EC50 value (nM)

[2] = test system: HIV-1 L100I mutant strain; assay: Anti-HIV-1 activity in MT-4 cells (MTT method), L100I; format: cell-based; conditions: Human immunodeficiency virus 1, MT4, read-out: EC50 (nM) L100I
Procedure: as §1, §2, §3, §4

[3] = test system: HIV-1 K103N mutant strain; assay: Anti-HIV-1 activity in MT-4 cells (MTT method), K103N; format: cell-based; conditions: Human immunodeficiency virus 1, MT4, read-out: EC50 (nM) K103N
Procedure: as §1, §2, §3, §4

[4] = test system: HIV-1 Y181C mutant strain; assay: Anti-HIV-1 activity in MT-4 cells (MTT method), Y181C; format: cell-based; conditions: Human immunodeficiency virus 1, MT4, read-out: EC50 (nM) Y181C
Procedure: as §1, §2, §3, §4

[5] = test system: HIV-1 Y188L mutant strain; assay: Anti-HIV-1 activity in MT-4 cells (MTT method), Y188L; format: cell-based; conditions: Human immunodeficiency virus 1, MT4, read-out: EC50 (nM) Y188L
Procedure: as §1, §2, §3, §4

[6] = test system: HIV-1 E138K mutant strain; assay: Anti-HIV-1 activity in MT-4 cells (MTT method), E138K; format: cell-based; conditions: Human immunodeficiency virus 1, MT4, read-out: EC50 (nM) E138K
Procedure: as §1, §2, §3, §4

[7] = test system: HIV-1 F227L/V106A double mutant strain; assay: Anti-HIV-1 activity in MT-4 cells (MTT method), F227L/V106A; format: cell-based; conditions: Human immunodeficiency virus 1, MT4, read-out: EC50 (nM) F227L/V106A
Procedure: as §1, §2, §3, §4

[8] = test system: HIV-1 double mutant RES056 (Y181C/K103N); assay: Anti-HIV-1 activity in MT-4 cells (MTT method), RES056; format: cell-based; conditions: Human immunodeficiency virus 1, MT4, read-out: EC50 (nM) Y181C/K103N
Procedure: as §1, §2, §3, §4

Structure (SMILES)	EC50 [1]	Activity against wide-type HIV-1, folds better than NVP ([1]; wide-type HIV-1, relative to NVP)	Activity against wide-type HIV-1 compared with RPV ([1]; wide-type HIV-1, relative to RPV)	EC50 [2]	EC50 [3]	EC50 [4]	EC50 [5]	EC50 [6]	EC50 [7]	EC50 [8]	melting point
Cc1cc(C#N)cc(C)c1Oc1nc(Nc2ccc(C#N)cc2)nc2c1S(=O)(=O)CCC2 [IA-1-4, 4-((2-((4-cyanophenyl)amino)-5,5-dioxido-7,8-dihydro-6H-thiopyrano[3,2-d]pyrimidin-4-yl)oxy)-3,5-dimethylbenzonitrile]	< 10 nM	30 folds	comparable	10 to 100 nM	< 10 nM	10 to 100 nM	10 to 100 nM	10 to 100 nM	10 to 100 nM	10 to 100 nM	263 to 265 °C
Cc1cc(C#N)cc(C)c1Oc1nc(NC2CCN(Cc3ccc([N+](=O)[O-])cc3)CC2)nc2c1SCCC2 [IIA-1-12, 3,5-dimethyl-4-((2-((1-(4-nitrobenzyl)piperidin-4-yl)amino)-7,8-dihydro-6H-thiopyrano[3,2-d]pyrimidin-4-yl)oxy)benzonitrile]	< 10 nM	–	–	> 100 nM	10 to 100 nM	> 100 nM	10 to 100 nM	10 to 100 nM	> 100 nM	> 100 nM	–
Cc1cc(C)c(Oc2nc(NC3CCN(Cc4ccc(S(N)(=O)=O)cc4)CC3)nc3c2SCCC3)c(C)c1 [IIA-1-2, 4-((4-((4-(mesityloxy)-7,8-dihydro-6H-thiopyrano[3,2-d]pyrimidin-2-yl)amino)piperidin-1-yl)methyl)benzenesulfonamide]	< 10 nM	–	–	10 to 100 nM	< 10 nM	10 to 100 nM	10 to 100 nM	10 to 100 nM	10 to 100 nM	> 100 nM	–
Cc1cc(C#N)cc(C)c1Oc1nc(NC2CCN(Cc3ccccc3C#N)CC2)nc2c1SCCC2 [IIA-1-7, 4-((2-((1-(2-cyanobenzyl)piperidin-4-yl)amino)-7,8-dihydro-6H-thiopyrano[3,2-d]pyrimidin-4-yl)oxy)-3,5-dimethylbenzonitrile]	< 10 nM	–	–	> 100 nM	10 to 100 nM	10 to 100 nM	> 100 nM	10 to 100 nM	> 100 nM	> 100 nM	–
Cc1cc(C#N)cc(C)c1Oc1nc(NC2CCN(Cc3ccc(N)cc3)CC2)nc2c1SCCC2 [IIA-1-13, 4-((2-((1-(4-aminobenzyl)piperidin-4-yl)amino)-7,8-dihydro-6H-thiopyrano[3,2-d]pyrimidin-4-yl)oxy)-3,5-dimethylbenzonitrile]	< 10 nM	–	–	10 to 100 nM	< 10 nM	10 to 100 nM	10 to 100 nM	10 to 100 nM	> 100 nM	> 100 nM	–
Cc1cc(/C=C/C#N)cc(C)c1Nc1ccnc(Nc2ccc(C#N)cc2)n1 [RPV, Rilpivirine, reference compound]	< 10 nM	–	–	< 10 nM	< 10 nM	< 10 nM	10 to 100 nM	< 10 nM	10 to 100 nM	10 to 100 nM	–
Cc1cc(C#N)cc(C)c1Oc1nc(Nc2ccc(C#N)cc2)nc2c1SCCC2 [IA-1-1, 4-((2-((4-cyanophenyl)amino)-7,8-dihydro-6H-thiopyrano[3,2-d]pyrimidin-4-yl)oxy)-3,5-dimethylbenzonitrile]	< 10 nM	–	–	10 to 100 nM	< 10 nM	10 to 100 nM	10 to 100 nM	10 to 100 nM	10 to 100 nM	10 to 100 nM	253 to 254 °C
Cc1cc(C#N)cc(C)c1Oc1nc(NC2CCN(c3cccc(C(N)=O)c3)CC2)nc2c1SCCC2 [IIC-1-2, 3-(4-((4-(4-cyano-2,6-dimethylphenoxy)-7,8-dihydro-6H-thiopyrano[3,2-d]pyrimidin-2-yl)amino)piperidin-1-yl)benzamide]	< 10 nM	–	–	10 to 100 nM	< 10 nM	< 10 nM	< 10 nM	10 to 100 nM	> 100 nM	10 to 100 nM	–
Cc1cc(C#N)cc(C)c1Oc1nc(Nc2ccc(C#N)cc2)nc2c1[S+]([O-])CCC2 (stereo not shown) [IA-1-3, 4-((2-((4-cyanophenyl)amino)-5-oxido-7,8-dihydro-6H-thiopyrano[3,2-d]pyrimidin-4-yl)oxy)-3,5-dimethylbenzonitrile]	< 10 nM	–	–	> 100 nM	10 to 100 nM	10 to 100 nM	10 to 100 nM	10 to 100 nM	> 100 nM	> 100 nM	247 to 249 °C
Cc1cc(C#N)cc(C)c1Oc1nc(Nc2ccc(C#N)cc2)nc(N)c1Br [ETV, Etravirine, reference compound]	< 10 nM	–	–	< 10 nM	< 10 nM	10 to 100 nM	10 to 100 nM	10 to 100 nM	10 to 100 nM	10 to 100 nM	–
